Source: patent publication US8772334B2, “Synergistic antimicrobial mixtures” (priority 2008, dated 2014)

What was measured:
mildew = assay: Outdoor exposure of wood-plastic composite panels including biocides, mildew growth (ASTM D 3274-94); set-up: key: 10 - No mildew growth; 9 - Very slight growth; 8 - Slight (very good); 7 - Some growth (good); 6 - Moderate growth (considered a failure); 4 - Pronounced growth; 2 - Severe growth; 0 - Very severe growth; details: WPC panel, Miami; for Mildew Growth 3 Months: 3 months outdoors; for Mildew Growth 6 Months: 6 months outdoors; for Mildew Growth 9 Months: 9 months outdoors; for Mildew Growth 12 Months: 12 months outdoors
Description: Several candidate biocides were tested in a typical WPC formulation, which is presented below in Table I.
WPC panels for evaluation were prepared by blending the above ingredients in a drum mixer for 30 to 35 minutes at 30 to 40 rpm and then processing the resulting mixture through a Tek Milacron extruder. This extruder is a twin-screw counter rotating conical unit having four temperature zones, for a total heated length of ten feet (3.0 m), and a 3.38 inch (86 mm) die at the exit. The temperature of extrusion was in the range of 340 to 350 degrees F. (171 to 177 degrees C.) and the WPC boards so produced had dimensions of about 5 feet (152 cm)×5½ inches (14 cm)×1 inch (2.5 cm). The WPC boards were subsequently cut into panels of one foot (30 cm) length.
Wood-plastic composite panels incorporating various biocides were prepared in accordance with the procedure set forth above in Example 1. The panels were evaluated for mildew growth by being exposed to the weather outdoors in Miami, Fla. for one year under a protocol publicly known as ASTM D 3274-94 of ASTM International (originally known as the American Society for Testing and Materials).
For the purposes of this evaluation, any biocide or combination of biocides which prevents moderate (or worse) mildew growth for an outdoor exposure period of at least 9 months is considered to have passed the weathering test.

[1] = system: Aureobasidium pullulans, also known as ATCC 9348; assay: MIC by spiral plater and Berenbaum FIC synergy against A. pullulans; format: cell-based; details: mean of twelve replications
[2] = system: Aspergillus niger, also known as ATCC 6275; assay: MIC by spiral plater (spiral gradient endpoint) and Berenbaum FIC synergy against A. niger; format: cell-based; details: for MIC ppm, average of spiral plater replications: malt agar, 48 hours at 28° C., ppm of active fungicide, mean of twelve replications
Text: A method for assessing synergy of a multi-component mixture having biologically active components is described in a technical article by M. C. Berenbaum entitled “Synergy, additivism and antagonism in immunosuppression”, which was published in the Journal of Clinical Experimental Immunology. See Clinical Exp. Immunol. 28, p. 1-18 (1977).
In the method, the dose of each agent which provides a synergistic or antagonistic effect in the overall biological effect of a mixture against a particular organism is expressed as a fraction of the dose that causes the effect when the respective agent is tested alone (hereinafter referred to as “dose of X/Xe”, “Fractional Inhibitory Concentration of agent X” or “FICX”). If the sum of the FICX's for a combination of active ingredients in a mixture is 1, the combination is additive in its effect. If the sum is less than one, the combination is synergistic. If the sum is greater than one, the combination is antagonistic. The general relationship (which may be an equality or an inequality) expressed for multi-component mixtures of biologically active components is herein designated Equation 1, as follows: […]
In order to apply the Berenbaum method to compositions of the invention, mixtures of fungicidal agents are prepared. The fungicidal activity of each of the mixtures is determined and expressed in terms of a minimum inhibitory concentration, which is just sufficient to inhibit the growth of a given microbe (hereinafter referred to “MIC”) for each of the mixtures. These MICs are subsequently used to calculate FICX for each agent X of a particular mixture. All of the FICX 's for each mixture (also known as the doses of X/Xe for the mixture) are summed, and the criteria for synergism, additivism and antagonism (as set forth above in Equation 1) are used to assess the mixture.
Minimum Inhibitory Concentrations (hereinafter referred to as “MIC”) for various mixtures of biocides were determined against spore suspensions of the fungus Aspergillus niger, also known as ATCC 6275 (hereinafter referred to as “A. niger”). […]

[3] = 4.0 mass % biocide (4.0 mass % active)
[4] = 0.2 mass % biocide (0.2 mass % active)
[5] = 0.22 mass % biocide (0.22 mass % active)
[6] = 0.23 mass % biocide (0.23 mass % active)

For Zinc Borate [99% Zinc Borate], the “Mildew Growth 3 Months” value (mildew; [3]) was 8, the “Mildew Growth 6 Months” value (mildew; [3]) was 2 and the “Mildew Growth 9 Months” value (mildew; [3]) was 6. The “Mildew Growth 12 Months” value (mildew; [3]) was 5.

`COC(=O)Nc1nc2ccccc2[nH]1` [98% BCM, methyl-N-benzimidazol-2-ylcarbamate] was tested, and the “Mildew Growth 3 Months” value (mildew; [4]) was 5, the “Mildew Growth 6 Months” value (mildew; [4]) was 1 and the “Mildew Growth 9 Months” value (mildew; [4]) was 2. The “Mildew Growth 12 Months” value (mildew; [4]) was 4.

With `O=C1C2CC=CCC2C(=O)N1SC(Cl)(Cl)Cl` (stereo not drawn) [Captan] the “Mildew Growth 3 Months” value (mildew; [5]) was 9, the “Mildew Growth 6 Months” value (mildew; [5]) was 1 and the “Mildew Growth 9 Months” value (mildew; [5]) was 2. For the same compound, the “Mildew Growth 12 Months” value (mildew; [5]) was 4.

With zinc borate [Mixture No. 4] the “MIC ppm, average of spiral plater replications” value (shortened to “MIC ppm, average”) [1] was > 1000 ppm.

`N#Cc1c(Cl)c(Cl)c(Cl)c(C#N)c1Cl` [Chlorothalonil] was tested, and the “Mildew Growth 3 Months” value (mildew; [4]) was 9, the “Mildew Growth 6 Months” value (mildew; [4]) was 2 and the “Mildew Growth 9 Months” value (mildew; [4]) was 0. The “Mildew Growth 12 Months” value (mildew; [4]) was 3.

`COC(=O)Nc1nc2ccccc2[nH]1` [BCM, 2-(methoxycarbonylamino)benzimidazole] was tested, and the MIC ([2]; Aspergillus niger, ATCC6275, pure BCM, read-out: MIC, average of values for Mixtures No. 2 and 3) was 2.6 µg/mL.

zinc borate [ZB] was tested, and the “MIC ppm, average” value [2] was 12 ppm.

For `CCCCNC(=O)OCC#CI` [IPBC, 3-iodo-2-propynyl butyl carbamate], the “MIC ppm, average” value [2] was 0.7 ppm.

`O=C1c2ccccc2C(=O)N1SC(Cl)(Cl)Cl` [Folpet] was tested, and the “Mildew Growth 3 Months” value (mildew; [6]) was 10, the “Mildew Growth 6 Months” value (mildew; [6]) was 2 and the “Mildew Growth 9 Months” value (mildew; [6]) was 0. The “Mildew Growth 12 Months” value (mildew; [6]) was 0.
